Patent publication EP4692090A1 (Shanghai Fosun Pharmaceutical (Group) Co., Ltd., priority 2023, dated 2024)
Like-named read-outs stand apart in the source and are kept apart here.

Assays:
LoVo cells = assay: LoVo cell proliferation assay (CellTiter-Glo); assay type: cell-based; conditions: maximum concentration 10 µM, 9 concentrations
Experimental: Test Example 2: LoVo cell proliferation assay
LoVo (ATCC, #CRL-229) cells in logarithmic growth phase were digested, counted, and plated into 96-well cell culture plates at 2,000 cells per well. The plates containing cells were incubated overnight at 37°C in a 5% CO2 incubator, and then test compounds with 3-fold gradient dilutions (maximum concentration: 10 µM, 9 concentrations) were added. DMSO was used as a blank control. After the LoVo cells containing the compounds or DMSO were incubated for an additional 5 days, an equal volume of CellTiter-Glo reagent (Promega, #7573) was added. After incubation at room temperature for 30 minutes, chemiluminescence was read using an Envision 2105 (PerkinElmer). The cell proliferation inhibition rate (%) for wells treated with each concentration of the compounds was calculated using the following formula. Then, with compound concentration as the horizontal axis and cell proliferation inhibition rate (%) as the vertical axis, GraphPad software was used to plot the data and determine the IC50 values of the test compounds. The results are shown in Table 2, wherein the IC50 ranges are defined as follows: A: ≤ 100 nM; 1000 nM ≥ B > 100 nM; C > 1000 nM.
Cell proliferation inhibition (%) = (1 - luminescence value of compound-treated group / average luminescence value of DMSO blank control group) × 100. Table 2. Inhibitory effect of compounds on LoVo growth

ATR kinase = biological target: T1, ATR kinase (Homo sapiens, UniProt Q13535); assay: Inhibitory effect on ATR kinase activity (Caliper mobility shift, FAM-labeled RAD17 peptide substrate); assay type: biochemical
T1 construct: purchased Eurofins 14-953
Experimental: Test Example 1: Inhibitory effect of the compounds of the present disclosure on ATR kinase activity
Test compounds to be tested were serially diluted with DMSO (maximum concentration 1 µM, 10 concentrations with 3-fold serial dilution) and added to the wells of a 384-well reaction plate (Corning, #4512). 1 nM ATR kinase (Eurofins, #14-953), 5 mM substrate (FAM-labeled RAD17 peptide, FAM-ASELPASQPQPFSAKKK), 5 mM ATP and the compounds with corresponding concentrations reacted in a kinase reaction solution (50 mM HEPES, pH 7.5; 0.0015% Brij-35; 10 mM MnCl2, total volume of 20 µL) at 28°C for 3 hours. The reaction was terminated by adding 30 µL of stop solution (100 mM HEPES, pH 7.5; 0.015% Brij-35; 0.2% Coating Reagent #3, PerkinElmer; 50 mM EDTA). The reaction plate was placed on a Caliper instrument (PerkinElmer) for testing. The relative inhibitory activity of each compound concentration group was calculated using the following formula: % Inhibition = (Conversion rate of the blank control group without compound added - Conversion rate of the test compound group) / (Conversion rate of the blank control group - […]). The IC50 values were calculated using GraphPad analysis and fitted. […] Table 1. Inhibitory effect (IC50) of compounds on ATR kinase activity.

[1] = Homo sapiens, LoVo, 120 h, read-out: LoVo IC50 (nM), LoVo cells, 2,000 cells per well, 5 days incubation, CellTiter-Glo
[2] = read-out: ATR kinase IC50, 1 nM ATR kinase (Eurofins), 28°C for 3 hours, maximum concentration 1 µM, 10 concentrations
[3] = LoVo cells, 2,000 cells per well, 5 days incubation, CellTiter-Glo, read-out: LoVo IC50
[4] = 1 nM ATR kinase (Eurofins), 28°C for 3 hours, maximum concentration 1 µM, 10 concentrations, read-out: ATR kinase IC50
[5] = Homo sapiens, LoVo, 120 h, LoVo cells, 2,000 cells per well, 5 days incubation, CellTiter-Glo, read-out: LoVo IC50

T1 sequence (Q13535 whole entry): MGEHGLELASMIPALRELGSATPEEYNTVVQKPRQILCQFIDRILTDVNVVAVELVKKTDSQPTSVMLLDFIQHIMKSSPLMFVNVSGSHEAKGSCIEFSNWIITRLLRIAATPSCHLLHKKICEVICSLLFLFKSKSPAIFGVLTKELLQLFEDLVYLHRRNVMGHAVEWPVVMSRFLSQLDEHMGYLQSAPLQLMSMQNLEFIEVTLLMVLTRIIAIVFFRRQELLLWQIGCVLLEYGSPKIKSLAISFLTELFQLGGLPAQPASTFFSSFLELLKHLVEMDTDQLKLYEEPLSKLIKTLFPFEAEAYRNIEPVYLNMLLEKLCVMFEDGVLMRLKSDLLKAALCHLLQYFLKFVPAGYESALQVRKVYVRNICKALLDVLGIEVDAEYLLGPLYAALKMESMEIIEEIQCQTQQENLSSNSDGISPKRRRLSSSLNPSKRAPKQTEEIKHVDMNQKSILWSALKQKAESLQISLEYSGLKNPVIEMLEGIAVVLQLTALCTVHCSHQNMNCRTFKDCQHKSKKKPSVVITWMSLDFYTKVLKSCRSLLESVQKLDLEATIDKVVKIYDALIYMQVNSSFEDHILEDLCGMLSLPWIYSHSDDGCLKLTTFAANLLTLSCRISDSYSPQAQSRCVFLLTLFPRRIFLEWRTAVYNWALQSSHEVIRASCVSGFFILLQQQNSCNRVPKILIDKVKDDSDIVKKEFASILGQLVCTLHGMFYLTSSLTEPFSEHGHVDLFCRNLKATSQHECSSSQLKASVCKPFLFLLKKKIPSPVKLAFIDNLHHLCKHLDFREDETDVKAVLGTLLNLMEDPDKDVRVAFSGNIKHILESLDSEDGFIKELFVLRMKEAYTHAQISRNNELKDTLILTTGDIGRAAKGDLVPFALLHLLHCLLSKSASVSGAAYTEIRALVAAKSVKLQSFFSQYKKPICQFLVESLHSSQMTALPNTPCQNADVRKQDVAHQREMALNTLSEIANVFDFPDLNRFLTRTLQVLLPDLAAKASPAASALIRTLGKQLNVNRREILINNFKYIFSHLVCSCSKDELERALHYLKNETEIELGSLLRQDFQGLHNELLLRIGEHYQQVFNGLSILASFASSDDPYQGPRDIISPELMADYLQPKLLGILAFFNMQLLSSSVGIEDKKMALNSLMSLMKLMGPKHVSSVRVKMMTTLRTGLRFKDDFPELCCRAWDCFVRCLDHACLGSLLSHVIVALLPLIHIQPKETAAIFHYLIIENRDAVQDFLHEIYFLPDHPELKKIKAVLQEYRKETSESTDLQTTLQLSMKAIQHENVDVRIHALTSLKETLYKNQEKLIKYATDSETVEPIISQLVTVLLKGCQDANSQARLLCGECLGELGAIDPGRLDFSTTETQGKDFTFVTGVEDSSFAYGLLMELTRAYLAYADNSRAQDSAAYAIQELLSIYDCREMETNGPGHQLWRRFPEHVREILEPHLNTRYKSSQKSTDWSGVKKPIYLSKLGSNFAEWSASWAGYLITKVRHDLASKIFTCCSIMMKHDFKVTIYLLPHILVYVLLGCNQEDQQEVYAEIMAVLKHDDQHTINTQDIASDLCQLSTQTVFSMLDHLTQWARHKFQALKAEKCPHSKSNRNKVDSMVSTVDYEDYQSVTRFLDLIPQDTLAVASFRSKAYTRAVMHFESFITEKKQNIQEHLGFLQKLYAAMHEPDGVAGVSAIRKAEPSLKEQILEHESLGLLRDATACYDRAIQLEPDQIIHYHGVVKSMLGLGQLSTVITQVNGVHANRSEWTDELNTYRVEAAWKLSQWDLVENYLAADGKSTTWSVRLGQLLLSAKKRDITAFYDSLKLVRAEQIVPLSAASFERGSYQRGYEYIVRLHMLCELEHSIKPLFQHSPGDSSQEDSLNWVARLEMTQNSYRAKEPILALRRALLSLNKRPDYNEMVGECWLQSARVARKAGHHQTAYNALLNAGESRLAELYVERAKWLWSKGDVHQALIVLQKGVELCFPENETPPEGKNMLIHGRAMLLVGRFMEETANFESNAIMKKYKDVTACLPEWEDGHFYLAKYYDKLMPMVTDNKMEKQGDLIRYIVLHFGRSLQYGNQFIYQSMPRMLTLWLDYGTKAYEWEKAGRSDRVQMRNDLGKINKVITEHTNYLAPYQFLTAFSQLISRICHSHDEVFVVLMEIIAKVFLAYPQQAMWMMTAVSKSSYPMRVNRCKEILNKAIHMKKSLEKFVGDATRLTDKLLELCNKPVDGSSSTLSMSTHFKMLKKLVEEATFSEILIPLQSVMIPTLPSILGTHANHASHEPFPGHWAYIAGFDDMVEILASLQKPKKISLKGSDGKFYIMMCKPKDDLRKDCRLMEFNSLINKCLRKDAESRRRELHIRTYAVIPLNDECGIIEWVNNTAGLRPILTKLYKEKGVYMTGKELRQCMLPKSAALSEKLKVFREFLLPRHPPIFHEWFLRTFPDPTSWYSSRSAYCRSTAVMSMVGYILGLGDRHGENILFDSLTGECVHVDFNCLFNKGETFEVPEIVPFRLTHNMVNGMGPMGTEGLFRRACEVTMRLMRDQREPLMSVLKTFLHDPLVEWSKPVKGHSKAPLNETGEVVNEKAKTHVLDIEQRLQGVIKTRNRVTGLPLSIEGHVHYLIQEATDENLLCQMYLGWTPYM
T1 sequence (Q8WXE1 whole entry partner): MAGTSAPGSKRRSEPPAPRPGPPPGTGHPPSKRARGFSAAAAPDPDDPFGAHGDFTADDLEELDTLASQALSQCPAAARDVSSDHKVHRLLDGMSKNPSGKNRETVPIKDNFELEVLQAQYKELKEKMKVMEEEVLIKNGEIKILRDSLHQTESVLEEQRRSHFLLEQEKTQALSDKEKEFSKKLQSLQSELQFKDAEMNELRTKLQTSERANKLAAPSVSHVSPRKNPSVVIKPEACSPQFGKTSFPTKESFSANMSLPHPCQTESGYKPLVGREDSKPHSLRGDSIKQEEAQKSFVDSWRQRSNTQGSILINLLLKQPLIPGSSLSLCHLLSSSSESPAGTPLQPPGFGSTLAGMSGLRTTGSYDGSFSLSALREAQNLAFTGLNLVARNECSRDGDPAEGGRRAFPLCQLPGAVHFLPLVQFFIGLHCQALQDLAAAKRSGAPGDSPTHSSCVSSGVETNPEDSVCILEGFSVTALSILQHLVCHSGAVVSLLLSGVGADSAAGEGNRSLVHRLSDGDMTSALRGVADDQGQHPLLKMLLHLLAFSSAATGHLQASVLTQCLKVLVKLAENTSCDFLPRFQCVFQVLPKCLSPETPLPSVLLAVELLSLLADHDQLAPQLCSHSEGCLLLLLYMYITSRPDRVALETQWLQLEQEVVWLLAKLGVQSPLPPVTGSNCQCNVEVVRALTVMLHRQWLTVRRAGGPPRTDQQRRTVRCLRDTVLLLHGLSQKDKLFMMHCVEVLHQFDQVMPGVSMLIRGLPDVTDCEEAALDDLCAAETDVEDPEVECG

| Compound | IC50 (ATR kinase; [4]) [nM] | IC50 (LoVo cells; [5]) [nM] | other results |
| --- | --- | --- | --- |
| C=CC(C)N1C(=O)CCn2nc(-c3cc[nH]n3)c3nc(N4CCOC[C@H]4C)cc1c32 (stereo partly drawn) [Compound 106, 6-(but-3-en-2-yl)-4-((R)-3-methylmorpholinyl)-2-(1H-pyrazol-3-yl)-8,9-dihydro-1,3,6,9a-tetraazabenzo[cd]azulene-7(6H)-one] |  |  | IC50 (LoVo cells; [1]): < 100 nM; IC50 (ATR kinase; [2]): < 10 nM |
| CC1c2cc(N3CCOC[C@H]3C)nc3c2c(nn3-c2cc[nH]n2)CCN1S(=O)(=O)C1CC1F (single isomer, unassigned) [Compound 151C] | 10 to 100 |  | IC50 (LoVo cells; [3]): 100 to 1000 nM |
| CC1c2cc(N3CCOC[C@H]3C)nc3c2c(nn3-c2cc[nH]n2)CCN1C1COC1 (single isomer, unassigned) [Compound 32A] | 10 to 100 | 100 to 1000 |  |
| CC(C)C1c2cc(N3CCOC[C@H]3C)nc3c2c(nn3-c2cc[nH]n2)CCN1C (single isomer, unassigned) [Compound 141A] | < 10 | < 100 |  |
| C[C@@H]1COCCN1c1cc2c3c(n1)c(-c1cc[nH]n1)nn3CCC(=O)N2C [Compound 86, (R)-6-methyl-4-(3-methylmorpholino)-2-(1H-pyrazol-3-yl)-8,9-dihydro-1,3,6,9a-tetraazabenzo[cd]azulene-7(6H)-one] | 100 to 1000 | 100 to 1000 |  |
| CC(=O)N1CCc2nn(-c3cc[nH]n3)c3nc(N4CCOC[C@H]4C)cc(c23)C1C (stereo partly drawn) [Compound 38, 1-(6-methyl-4-((R)-3-methylmorpholinyl)-2-(1H-pyrazol-3-yl)-2,6,8,9-tetrahydro-7H-1,2,3,7-tetraazabenzo[cd]azulen-7-yl)ethan-1-one] |  |  | IC50 (LoVo cells; [1]): 100 to 1000 nM; IC50 (ATR kinase; [2]): < 10 nM |
| C[C@@H]1COCCN1c1cc2c3c(nn(-c4cc[nH]n4)c3n1)CCC(=O)N2C1CC(F)(F)C1 [Compound 79, (R)-6-(3,3-difluorocyclobutyl)-4-(3-methylmorpholinyl)-2-(1H-pyrazol-3-yl)-2,6,8,9-tetrahydro-7H-1,2,3,6-tetraazabenzo[cd]azulene-7-one] |  |  | IC50 (LoVo cells; [1]): 100 to 1000 nM; IC50 (ATR kinase; [2]): < 10 nM |
| CC(C)N1CCc2nn(-c3cc[nH]n3)c3nc(N4CCOC[C@H]4C)cc(c23)C1C (single isomer, unassigned) [Compound 36A] | < 10 | 100 to 1000 |  |
| CC1c2cc(N3CCOC[C@H]3C)nc3c2c(nn3-c2cc[nH]n2)CCN1C1CC1 (single isomer, unassigned) [Compound 31B] | < 10 |  | IC50 (LoVo cells; [3]): < 100 nM |
| CC(C)S(=O)(=O)N1CCc2nn(-c3cc[nH]n3)c3nc(N4CCOC[C@H]4C)cc(c23)C1 [Compound 24, (R)-4-(7-(isopropylsulfonyl)-2-(1H-pyrazol-3-yl)-6,7,8,9-tetrahydro-2H-1,2,3,7-tetraazabenzo[cd]azulen-4-yl)-3-methylmorpholine] | < 10 | 100 to 1000 |  |
| CC1=NCCn2nc(-c3cc[nH]n3)c3nc(N4CCOC[C@H]4C)cc1c32 [Compound 58, (R)-3-methyl-4-(6-methyl-2-(1H-pyrazol-3-yl)-8,9-dihydro-1,3,7,9a-tetraazabenzo[cd]azulen-4-yl)morpholine] | 10 to 100 | 100 to 1000 |  |
| CC1c2cc(N3CCOC[C@H]3C)nc3c(-c4cc[nH]n4)nn(c23)CCN1C1COC1 (stereo partly drawn) [Compound 57, (3R)-3-methyl-4-(6-methyl-7-(oxetan-3-yl)-2-(1H-pyrazol-3-yl)-6,7,8,9-tetrahydro-1,3,7,9a-tetraazabenzo[cd]azulen-4-yl)morpholine] | 10 to 100 | 100 to 1000 |  |
| CC1c2cc(N3CCOC[C@H]3C)nc3c2c(nn3-c2cc[nH]n2)CCN1S(=O)(=O)C1CC1F (single isomer, unassigned) [Compound 151A] | < 10 | < 100 |  |
| CC1c2cc(N3CCOC[C@H]3C)nc3c2c(nn3-c2cc[nH]n2)CCN1S(=O)(=O)C1CC1 (single isomer, unassigned) [Compound 37A] | 10 to 100 | < 100 |  |
| CC1c2cc(N3CCOC[C@H]3C)nc3c2c(nn3-c2cc[nH]n2)CCN1C1CC1 (single isomer, unassigned) [Compound 31A] | < 10 | < 100 |  |
| CC(C)CN1C(=O)CCn2nc(-c3cc[nH]n3)c3nc(N4CCOC[C@H]4C)cc1c32 [Compound 84, (R)-6-isobutyl-4-(3-methylmorpholino)-2-(1H-pyrazol-3-yl)-8,9-dihydro-1,3,6,9a-tetraazabenzo[cd]azulene-7(6H)-one] | < 10 | < 100 |  |
| C[C@@H]1COCCN1c1cc2c3c(n1)c(-c1cc[nH]n1)nn3CCC(=O)N2CC1(C#N)CC1 [Compound 116, (R)-1-((4-(3-methylmorpholinyl)-7-oxo-2-(1H-pyrazol-3-yl)-8,9-dihydro-1,3,6,9a-tetraazabenzo[cd]azulene-6(7H)-yl)methyl)cyclopropane-1-carbonitrile] |  |  | IC50 (LoVo cells; [1]): 100 to 1000 nM; IC50 (ATR kinase; [2]): 10 to 100 nM |
| C[C@@H]1COCCN1c1cc2c3c(nn(-c4cc[nH]n4)c3n1)CCNC2 [Compound 1, (R)-4-(2-(1H-pyrazol-3-yl)-6,7,8,9-tetrahydro-2H-1,2,3,7-tetraazabenzo[cd]azulen-4-yl)-3-methylmorpholine] |  |  | IC50 (LoVo cells; [1]): 100 to 1000 nM; IC50 (ATR kinase; ATR kinase IC50 (nM), 1 nM ATR kinase (Eurofins), 28°C for 3 hours, maximum concentration 1 µM, 10 concentrations): 100 to 1000 nM |
| CC(C(=O)N1CCc2nn(-c3cc[nH]n3)c3nc(N4CCOC[C@H]4C)cc(c23)C1)C(F)(F)F (stereo partly drawn) [Compound 16, 3,3,3-trifluoro-2-methyl-1-(4-((R)-3-methylmorpholinyl)-2-(1H-pyrazol-3-yl)-2,6,8,9-tetrahydro-7H-1,2,3,7-tetraazabenzo[cd]azulen-7-yl)propan-1-one] |  |  | IC50 (LoVo cells; [1]): 100 to 1000 nM; IC50 (ATR kinase; [2]): < 10 nM |
| CC1c2cc(N3CCOC[C@H]3C)nc3c2c(nn3-c2cc[nH]n2)CCN1S(C)(=O)=NC1CC1 (stereo partly drawn) [Compound 153, (3R)-4-(7-(N-cyclopropyl-S-methylsulfonylimino)-6-methyl-2-(1H-pyrazol-3-yl)-6,7,8,9-tetrahydro-2H-1,2,3,7-tetraazabenzo[cd]azulen-4-yl)-3-methylmorpholine] |  |  | IC50 (LoVo cells; [1]): 100 to 1000 nM; IC50 (ATR kinase; [2]): 10 to 100 nM |
| CC(C)C1(O)CCn2nc(-c3cc[nH]n3)c3nc(N4CCOC[C@H]4C)cc1c32 (single isomer, unassigned) [Compound 72A] | 100 to 1000 |  | IC50 (LoVo cells; [3]): > 1000 nM |
| C[C@@H]1COCCN1c1cc2c3c(nn(-c4cc[nH]n4)c3n1)CCN(C1CC3CCC(C1)O3)C2 (stereo partly drawn) [Compound 6, (3R)-4-(7-(8-oxabicyclo[3.2.1]octan-3-yl)-2-(1H-pyrazol-3-yl)-6,7,8,9-tetrahydro-2H-1,2,3,7-tetraazabenzo[cd]azulen-4-yl)-3-methylmorpholine] | 100 to 1000 | 100 to 1000 |  |
| C[C@@H]1COCCN1c1cc2c3c(n1)c(-c1cc[nH]n1)nn3CCC(=O)N2CCC(F)(F)F [Compound 85, (R)-4-(3-methylmorpholino)-2-(1H-pyrazol-3-yl)-6-(3,3,3-trifluoropropyl)-8,9-dihydro-1,3,6,9a-tetraazabenzo[cd]azulene-7(6H)-one] | 10 to 100 | < 100 |  |
| C[C@@H]1COCCN1c1cc2c3c(nn(-c4cc[nH]n4)c3n1)CCN(C1COC1)C2C1CC1 (stereo partly drawn) [Compound 135, (3R)-4-(6-cyclopropyl-7-(oxetan-3-yl)-2-(1H-pyrazol-3-yl)-6,7,8,9-tetrahydro-2H-1,2,3,7-tetraazabenzo[cd]azulen-4-yl)-3-methylmorpholine] | 10 to 100 | < 100 |  |
| CC(C)N1CCCn2nc(-c3cc[nH]n3)c3nc(N4CCOC[C@H]4C)cc1c32 [Compound 120, (R)-4-(6-isopropyl-2-(1H-pyrazol-3-yl)-6,7,8,9-tetrahydro-1,3,6,9a-tetraazabenzo[cd]azulen-4-yl)-3-methylmorpholine] | 10 to 100 | 100 to 1000 |  |
